How the values were obtained:
PTEN = experiment: Immunostaining of endogenous PTEN: nuclear translocation in cultured neurons with NMDA; type: cell-based, rat; settings: peptide 10 uM, NMDA stimulation
Description: Dissociated cultures of rat cortical or hippocampal neurons were prepared from 18-d-old Sprague Dawley rat embryos as described previously (Mielke and Wang 2005). To obtain mixed cultures enriched with neurons, uridine (10 μM) and 5-Fluor-T-deoxyuridine (10 μM) were added to the culture medium at 3 d in vitro (DIV) and maintained for 48 h to inhibit non-neuronal cell proliferation before the cultures were returned to the normal culture medium. Mature neurons (12-14 DIV) were used for experiments.
In order to induce excitotoxicity, 12-14 DIV cultured neurons were washed and transferred to Mg2+-free extracellular solution (ECS) containing the following (in mM): 25 HEPES acid, 140 NaCl, 33 glucose, 5.4 KCl, and 1.3 CaCl2, with pH 7.35 and osmolarity 320-330 mOsm. ECS and subjected to NMDA-induced excitotoxicity (20 μM NMDA, 10 μM glycine, 60 min at room temperature) or any other experimental conditions as indicated in the texts. Cells were then washed twice with normal ECS, and returned to the original growth conditions until additional assay.

[1] = Infarct volume by MRI after cerebral ischemia (MCA/CCA ligation); type: in vivo, rat; settings: for infarct volume assessed by MRI: seven days after cerebral ischemia; for Mean (infarct volume): given 6 hours after ischemia onset, n=8
Description: Adult male Sprague-Dawley rats (weight 200 g) were used in this study. All surgical procedures were performed using sterile/aseptic techniques in accordance with Institutional guidelines. Rats were anesthetized with chloral hydrate (0.4 g/kg IP) and subjected to cerebral ischemia. Ligation of the right middle cerebral artery (MCA) and bilateral common carotids arteries (CCAs) was performed by methods described previously (Shyu et al. 2005). The CCAs were clamped with non-traumatic arterial clips. The right MCA was ligated with a 10-0 nylone suture. After 90 min of ischemia, the suture on the MCA and the arterial clips on the CCAs were removed to allow reperfusion. Core body temperature was monitored with a thermistor probe (Hewlett-Packard™ Model 21090A probe, Hewlett-Packard Company™, Andover, Mass.), and maintained at 37° C. with a heating pad during anesthesia. After recovery from anesthesia, rat body temperature was maintained at 37° C. with a heat lamp. […]
MRI was performed on rats under anesthesia in an imaging system (R4, GE™) at 3.0 T. Brains were scanned in 6 to 8 coronal image slices, each 2 mm thick without any gaps. T2-weighted imaging (T2WI) pulse sequences were obtained with the use of a spin-echo technique (repetition time, 4000 ms; echo time, 105 ms) and were captured sequentially for each animal at day 7 after cerebral ischemia. To measure the infarction area in the right cortex, we subtracted the noninfarcted area in the right cortex from the total cortical area of the left hemisphere (Shyu et al. 2004). The area of infarct was drawn manually from slice to slice, and the volume was then calculated by internal volume analysis software (Voxtool™, General Electric™).

transplanted iPS-NPCs = experiment: Survival of iPS-NPCs transplanted intracerebrally after focal cerebral ischemia in the rat (TUNEL); type: in vivo
Source text: iPS-MEF-Ng-20D-17 from Kyoto University, and Cell Bank of RIKEN BioResource Center of Japan (Okita K. et al. Nature (2007) 448(7151):313-17) was induced into iPS-NPCs using a multistage differentiation protocol with some modifications (Kumagai G. et al. PLoS ONE (2009) 4(11):e7706). In brief, the human iPS cells expanding on irradiated MEF feeder cells were passaged, and then transferred to nonadherent culture dishes where they readily formed spheroid embryoid bodies (EBs). Clusters of neuroepithelial-like cells could be isolated and propagated from EBs in the medium of DMEM-F12, N2 supplement (1%; Invitrogen), and 20 ng/mL FGF-2 (R&D Systems™, Germany).
Prior to transplantation, the iPS-NPSs were labeled using 1 μg/mL bis-benzimide (Hoechst™ 33342; Sigma™) for 1 hours at 37° C. as previously described (Shyu W C. et al. J Clin Invest (2008) 118(1):133-148). Labeled cells were then collected and washed in PBS three times. iPS-NPCs were counted using a cytometer to ensure an adequate cell number for transplantation. One week after brain ischemia, adult male Sprague-Dawley rats (weight >300 g) were anesthetized with chloral hydrate (0.4 g/kg, ip) and injected stereotaxically with approximately 1×10^6 cells in a 3-5 μL PBS suspension through a 26-gauge Hamilton syringe into 3 cortical areas adjacent to the right MCA, 3.0 to 5.0 mm below the dura. […]

KEIVSRNKRRYQED-YGRKKRRQRRR (KEIVSRNKRRYQEDYGRKKRRQRRR; PTEN K13 interference peptide conjugated to TAT protein transduction domain) [Peptide-K13]
PTEN nuclear translocation (endogenous PTEN immunostaining) (PTEN): prevented PTEN nuclear translocation
decrease in infarct volume as compared to the control ([1]; 1.0 mg/kg intravenous): greater than 50%
decrease in infarct volume as compared to the control ([1]; 10 mg/kg intravenous): greater than 50%
infarct volume assessed by MRI ([1]; i.v. 8.4 mg/kg given 2 hours after ischemia onset): significantly reduced
infarct volume assessed by MRI ([1]; i.v. 8.4 mg/kg given 6 hours after ischemia onset): significantly reduced
Mean (infarct volume) ([1]; intravenous 0.1 mg/kg): 160.900
Mean (infarct volume) ([1]; intravenous 1.0 mg/kg): 72.850
Mean (infarct volume) ([1]; intravenous 10 mg/kg): 63.700
TUNEL positive transplanted iPS-NPCs (transplanted iPS-NPCs; 7 days after transplantation, vs saline-treated rats, n=6): significantly fewer
survival rate of transplanted iPS-NPCs (transplanted iPS-NPCs; intravenous 8.4 mg/kg once a day for 7 days following transplantation, ischemic rat): significantly increased

Reference: patent publication US9127079B2, “Inhibitors of phosphatase and tensin homolog (PTEN) conjugates” (THE UNIVERSITY OF BRITISH COLUMBIA, priority 2009, dated 2015)
